Reference: patent publication US20190315806A1, “POLYMYXIN DERIVATIVE, PREPARATION METHOD AND APPLICATION THEREOF” (priority 2016, published 2019)
Values after ≈ are worked out from the molar mass of the structure shown. Where two headings read alike, the source gives them in different places. Where a SMILES comes first, the peptide text is derived from it. Bridges are numbered along the chain shown (N, C = ends). [ ]: non-standard residue; d: D form. The star is where a group is joined. Heptanoyl(6-Me) = CC(C)CCCCC(=O)*; X2 = CC[C@H](C)CCCCC(=O)*; Heptanoyl = CCCCCCC(=O)*; Octanoyl = CCCCCCCC(=O)*; Dab = NCC[C@H](N)C(=O)O; Nva = CCC[C@H](N)C(=O)O

Key:
Format in all cases: cell-based
[1] = tested on: Acinetobacter baumannii ATCC 19606
Procedure, shortened: (§1)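 Agar dilution per CLSI; drug mixed into molten agar at twofold steps from 0.03 to 128 μg/mL (final). Inoculum 10^4 CFU/dot, multipoint. Incubation 35° C., 18–24 h; MIC = lowest concentration with no colonies.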

[2] = tested on: Escherichia coli ATCC 25922
Procedure, shortened: as §1

[3] = tested on: Pseudomonas aeruginosa ATCC 27853
Procedure, shortened: as §1

[4] = tested on: Staphylococcus epidermidis ATCC 12228
Procedure, shortened: as §1

[5] = tested on: Klebsiella pneumoniae ATCC BAA-2146 (NDM-1); test: Antibacterial activity, MIC by dish double dilution method
Procedure, shortened: as §1

[6] = agar dilution, 10^4 CFU/dot, 18 to 24 hours at 35° C.

| Structure (SMILES) | MIC A. baumannii ATCC 19606 ([1]; ATCC 19606) [µg/mL] | MIC E. coli ATCC 25922 ([2]; ATCC 25922) [µg/mL] | MIC P. aeruginosa ATCC 27853 ([3]; ATCC 27853) [µg/mL] | MIC S. epidermidis ATCC 12228 ([4]; ATCC 12228) [µg/mL] | MIC K. pneumoniae ATCC BAA-2146 (NDM-1) ([5]; ATCC BAA-2146) [µg/mL] | MIC A. baumannii ATCC 19606 [1, 6] [µg/mL] | MIC E. coli ATCC 25922 [2, 6] [µg/mL] | MIC P. aeruginosa ATCC 27853 [3, 6] [µg/mL] | MIC S. epidermidis ATCC 12228 [4, 6] [µg/mL] | MIC K. pneumoniae ATCC BAA-2146 (NDM-1) [5, 6] [µg/mL] |
| --- | --- | --- | --- | --- | --- | --- | --- | --- | --- | --- |
| CCCCCCCC(=O)N[C@@H](CCN)C(=O)N[C@H](C(=O)N[C@@H](CO)C(=O)N[C@H]1CCNC(=O)[C@H]([C@@H](C)O)NC(=O)[C@H](CCN)NC(=O)[C@H](CCN)NC(=O)[C@H](CC(C)C)NC(=O)[C@@H](Cc2ccccc2)NC(=O)[C@H](CCN)NC1=O)[C@@H](C)O [Compound 54, octanoyl-Dab-Thr-Ser-ring(4-10)[Dab-Dab-D-Phe-Leu-Dab-Dab-Thr]] (Octanoyl-[Dab]TS[Dab][Dab][dF]L[Dab][Dab]T; lactam 4-C) | 0.5 (≈ 0.425 µM) | 0.5 (≈ 0.425 µM) | 1 (≈ 0.85 µM) | 64 (≈ 54.4 µM) | 1 (≈ 0.85 µM) | – | – | – | – | – |
| CCCCCCCC(=O)N[C@@H](CCN)C(=O)N[C@H](C(=O)N[C@H](CO)C(=O)N[C@H]1CCNC(=O)[C@H]([C@@H](C)O)NC(=O)[C@H](CCN)NC(=O)[C@H](CCN)NC(=O)[C@H]([C@@H](C)O)NC(=O)[C@@H](CC(C)C)NC(=O)[C@H](CCN)NC1=O)[C@@H](C)O [Compound 60, octanoyl-Dab-Thr-D-Ser-ring(4-10)[Dab-Dab-D-Leu-Thr-Dab-Dab-Thr]] (Octanoyl-[Dab]T[dS][Dab][Dab][dL]T[Dab][Dab]T; lactam 4-C) | 0.06 (≈ 0.0531 µM) | 0.12 (≈ 0.106 µM) | 2 (≈ 1.77 µM) | >128 | 0.5 (≈ 0.442 µM) | – | – | – | – | – |
| CC[C@H](C)CCCCC(=O)N[C@@H](CCN)C(=O)N[C@H](C(=O)N[C@@H](CCN)C(=O)N[C@H]1CCNC(=O)[C@H]([C@@H](C)O)NC(=O)[C@H](CCN)NC(=O)[C@H](CCN)NC(=O)[C@H](CC(C)C)NC(=O)[C@@H](CC(C)C)NC(=O)[C@H](CCN)NC1=O)[C@@H](C)O [Compound 70, (S)-6-methyloctanoyl-Dab-Thr-Dab-ring(4-10)[Dab-Dab-D-Leu-Leu-Dab-Dab-Thr]] (X2-[Dab]T[Dab][Dab][Dab][dL]L[Dab][Dab]T; lactam 4-C) | – | – | – | – | – | 1 (≈ 0.855 µM) | 1 (≈ 0.855 µM) | 2 (≈ 1.71 µM) | 64 (≈ 54.7 µM) | 1 (≈ 0.855 µM) |
| CC(C)CCCCC(=O)N[C@@H](CCN)C(=O)N[C@H](C(=O)N[C@@H](CCN)C(=O)N[C@H]1CCNC(=O)[C@H]([C@@H](C)O)NC(=O)[C@H](CCN)NC(=O)[C@H](CCN)NC(=O)[C@H](CC(C)C)NC(=O)[C@@H](CC(C)C)NC(=O)[C@H](CCN)NC1=O)[C@@H](C)O [Compound 74, 6-methylheptanoyl-Dab-Thr-Dab-ring(4-10)[Dab-Dab-D-Leu-Leu-Dab-Dab-Thr]] ({Heptanoyl(6-Me)}-[Dab]T[Dab][Dab][Dab][dL]L[Dab][Dab]T; lactam 4-C) | 0.5 (≈ 0.433 µM) | 0.5 (≈ 0.433 µM) | 2 (≈ 1.73 µM) | 64 (≈ 55.4 µM) | – | – | – | – | – | 1 (≈ 0.865 µM) |
| CCCCCCCC(=O)N[C@@H](CCN)C(=O)N[C@H](C(=O)N[C@@H](CCN)C(=O)N[C@H]1CCNC(=O)[C@H]([C@@H](C)O)NC(=O)[C@H](CCN)NC(=O)[C@H](CCN)NC(=O)[C@H](CC(C)C)NC(=O)[C@@H](CC(C)C)NC(=O)[C@H](CCN)NC1=O)[C@@H](C)O [Compound 78, octanoyl-Dab-Thr-Dab-ring(4-10)[Dab-Dab-D-Leu-Leu-Dab-Dab-Thr]] (Octanoyl-[Dab]T[Dab][Dab][Dab][dL]L[Dab][Dab]T; lactam 4-C) | 0.5 (≈ 0.433 µM) | 0.5 (≈ 0.433 µM) | 1 (≈ 0.865 µM) | 32 (≈ 27.7 µM) | 0.5 (≈ 0.433 µM) | – | – | – | – | – |
| CCCCCCCC(=O)N[C@@H](CCN)C(=O)N[C@H](C(=O)N[C@@H](CCN)C(=O)N[C@H]1CCNC(=O)[C@H]([C@@H](C)O)NC(=O)[C@H](CCN)NC(=O)[C@H](CCN)NC(=O)[C@H]([C@@H](C)CC)NC(=O)[C@@H](CC(C)C)NC(=O)[C@H](CCN)NC1=O)[C@@H](C)O [Compound 79, octanoyl-Dab-Thr-Dab-ring(4-10)[Dab-Dab-D-Leu-Ile-Dab-Dab-Thr]] (Octanoyl-[Dab]T[Dab][Dab][Dab][dL]I[Dab][Dab]T; lactam 4-C) | 0.5 (≈ 0.433 µM) | 0.5 (≈ 0.433 µM) | 1 (≈ 0.865 µM) | >128 | 1 (≈ 0.865 µM) | – | – | – | – | – |
| CCCCCCCC(=O)N[C@@H](CCN)C(=O)N[C@H](C(=O)N[C@@H](CCN)C(=O)N[C@H]1CCNC(=O)[C@H]([C@@H](C)O)NC(=O)[C@H](CCN)NC(=O)[C@H](CCN)NC(=O)[C@H](C(C)C)NC(=O)[C@@H](CC(C)C)NC(=O)[C@H](CCN)NC1=O)[C@@H](C)O [Compound 80, octanoyl-Dab-Thr-Dab-ring(4-10)[Dab-Dab-D-Leu-Val-Dab-Dab-Thr]] (Octanoyl-[Dab]T[Dab][Dab][Dab][dL]V[Dab][Dab]T; lactam 4-C) | 1 (≈ 0.876 µM) | 0.5 (≈ 0.438 µM) | 1 (≈ 0.876 µM) | >128 | 0.5 (≈ 0.438 µM) | – | – | – | – | – |
| CCCCCCCC(=O)N[C@@H](CCN)C(=O)N[C@H](C(=O)N[C@@H](CCN)C(=O)N[C@H]1CCNC(=O)[C@H]([C@@H](C)O)NC(=O)[C@H](CCN)NC(=O)[C@H](CCN)NC(=O)[C@H](CCC)NC(=O)[C@@H](CC(C)C)NC(=O)[C@H](CCN)NC1=O)[C@@H](C)O [Compound 81, octanoyl-Dab-Thr-Dab-ring(4-10)[Dab-Dab-D-Leu-Nva-Dab-Dab-Thr]] (Octanoyl-[Dab]T[Dab][Dab][Dab][dL][Nva][Dab][Dab]T; lactam 4-C) | 1 (≈ 0.876 µM) | 0.5 (≈ 0.438 µM) | 1 (≈ 0.876 µM) | >128 | 1 (≈ 0.876 µM) | – | – | – | – | – |
| CCCCCCC(=O)N[C@@H](CCN)C(=O)N[C@H](C(=O)N[C@@H](CCN)C(=O)N[C@H]1CCNC(=O)[C@H]([C@@H](C)O)NC(=O)[C@H](CCN)NC(=O)[C@H](CCN)NC(=O)[C@H]([C@@H](C)CC)NC(=O)[C@@H](CC(C)C)NC(=O)[C@H](CCN)NC1=O)[C@@H](C)O [Compound 83, heptanoyl-Dab-Thr-Dab-ring(4-10)[Dab-Dab-D-Leu-Ile-Dab-Dab-Thr]] (Heptanoyl-[Dab]T[Dab][Dab][Dab][dL]I[Dab][Dab]T; lactam 4-C) | 1 (≈ 0.876 µM) | 0.5 (≈ 0.438 µM) | 1 (≈ 0.876 µM) | >128 | 1 (≈ 0.876 µM) | – | – | – | – | – |
| CCCCCCCC(=O)N[C@@H](CCN)C(=O)N[C@H](C(=O)N[C@@H](CO)C(=O)N[C@H]1CCNC(=O)[C@H]([C@@H](C)O)NC(=O)[C@H](CCN)NC(=O)[C@H](CCN)NC(=O)[C@H](CC(C)C)NC(=O)[C@@H](CC(C)C)NC(=O)[C@H](CCN)NC1=O)[C@@H](C)O [Compound 98, octanoyl-Dab-Thr-Ser-ring(4-10)[Dab-Dab-D-Leu-Leu-Dab-Dab-Thr]] (Octanoyl-[Dab]TS[Dab][Dab][dL]L[Dab][Dab]T; lactam 4-C) | 0.5 (≈ 0.438 µM) | 0.5 (≈ 0.438 µM) | 1 (≈ 0.875 µM) | >128 | 1 (≈ 0.875 µM) | – | – | – | – | – |
| CC[C@H](C)CCCCC(=O)N[C@@H](CCN)C(=O)N[C@H](C(=O)N[C@@H](CCN)C(=O)N[C@H]1CCNC(=O)[C@H]([C@@H](C)O)NC(=O)[C@H](CCN)NC(=O)[C@H](CCN)NC(=O)[C@H]([C@@H](C)O)NC(=O)[C@@H](CC(C)C)NC(=O)[C@H](CCN)NC1=O)[C@@H](C)O [Compound 102, (S)-6-methyloctanoyl-Dab-Thr-Dab-ring(4-10)[Dab-Dab-D-Leu-Thr-Dab-Dab-Thr]] (X2-[Dab]T[Dab][Dab][Dab][dL]T[Dab][Dab]T; lactam 4-C) | 0.5 (≈ 0.432 µM) | 1 (≈ 0.864 µM) | 1 (≈ 0.864 µM) | >128 | 0.25 (≈ 0.216 µM) | – | – | – | – | – |
| CCCCCCCC(=O)N[C@@H](CCN)C(=O)N[C@H](C(=O)N[C@@H](CCN)C(=O)N[C@H]1CCNC(=O)[C@H]([C@@H](C)O)NC(=O)[C@H](CCN)NC(=O)[C@H](CCN)NC(=O)[C@H]([C@@H](C)O)NC(=O)[C@@H](CC(C)C)NC(=O)[C@H](CCN)NC1=O)[C@@H](C)O [Compound 104, octanoyl-Dab-Thr-Dab-ring(4-10)[Dab-Dab-D-Leu-Thr-Dab-Dab-Thr]] (Octanoyl-[Dab]T[Dab][Dab][Dab][dL]T[Dab][Dab]T; lactam 4-C) | 0.5 (≈ 0.437 µM) | 0.25 (≈ 0.219 µM) | 1 (≈ 0.875 µM) | 64 (≈ 56 µM) | 0.5 (≈ 0.437 µM) | – | – | – | – | – |
